Source: PMC2929395 (Chemistry & biology, 2010)
Numbering of substitutions follows the chain as printed. “Also recorded” adds a separate entry of the source. Values belong to the compound of their own block, whether it stands above or below them.

Assays:
PanK3(S195V) = target: T1, PanK3(S195V) (Homo sapiens, UniProt Q9H999, S195V); experiment: PanK3; type: biochemical; details: for Km: read-out: KM for PanK3(S195V), substrate; for Inhibition of PanK3(S195V): radioactive assay, 800 ng PanK3(S195V)
T1 sequence (Q9H999 1-370 S195V): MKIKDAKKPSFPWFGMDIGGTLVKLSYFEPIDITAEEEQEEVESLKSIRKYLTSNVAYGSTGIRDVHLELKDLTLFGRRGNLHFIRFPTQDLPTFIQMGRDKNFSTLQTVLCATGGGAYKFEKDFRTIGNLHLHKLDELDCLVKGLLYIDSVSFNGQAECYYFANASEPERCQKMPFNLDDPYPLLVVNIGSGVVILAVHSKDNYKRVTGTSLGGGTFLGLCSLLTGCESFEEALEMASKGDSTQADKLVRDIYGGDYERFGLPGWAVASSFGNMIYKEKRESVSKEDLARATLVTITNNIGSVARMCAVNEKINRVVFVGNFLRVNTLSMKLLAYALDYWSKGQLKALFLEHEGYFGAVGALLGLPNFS

PanK3 [1] = target: T2, PanK3 (Homo sapiens, UniProt Q9H999); experiment: PanK3 radiochemical; type: biochemical; details: for Km: read-out: KM for PanK3, wild-type PanK3, substrate; for % Activation RA: % of maximal activation of PanK3 with respect to the DMSO control, radioactive assay; for Reversal of / competition with acetyl-CoA inhibition of PanK3: in the presence of acetyl-CoA, data not shown
PanK3 [2] = target: T2, PanK3; experiment: PanK3 high-throughput screen, two-step luminescence; type: biochemical
PanK2 = target: T3, PanK2 (Homo sapiens, UniProt Q9BZ23); experiment: Isoform selectivity, purified PanK2; type: biochemical; details: compared to PanK3
T3 sequence (Q9BZ23 141-570 limits assumed): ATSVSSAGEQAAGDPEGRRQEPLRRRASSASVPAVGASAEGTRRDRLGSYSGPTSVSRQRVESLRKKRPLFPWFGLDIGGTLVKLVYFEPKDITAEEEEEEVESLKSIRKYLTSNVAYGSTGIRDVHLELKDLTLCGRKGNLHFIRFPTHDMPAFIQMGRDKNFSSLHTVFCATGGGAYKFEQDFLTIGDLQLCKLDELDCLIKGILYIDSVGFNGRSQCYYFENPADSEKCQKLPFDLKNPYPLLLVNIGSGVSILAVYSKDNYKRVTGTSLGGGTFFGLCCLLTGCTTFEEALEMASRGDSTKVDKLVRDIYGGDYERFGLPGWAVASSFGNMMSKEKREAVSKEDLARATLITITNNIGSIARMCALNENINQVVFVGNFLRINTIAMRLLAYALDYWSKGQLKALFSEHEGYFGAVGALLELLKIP

HepG2/C3A cells = experiment: CoA biosynthesis, [3H]pantothenate incorporation into CoA in HepG2/C3A cells; type: cell-based, human; details: 24 h labeling, relative to DMSO control
PanK1β = target: T4, PanK1β (Homo sapiens, UniProt Q8TE04); experiment: Isoform selectivity, purified PanK1β; type: biochemical; details: compared to PanK3
T4 sequence (Q8TE04 1-373 isoform Q8TE04-2): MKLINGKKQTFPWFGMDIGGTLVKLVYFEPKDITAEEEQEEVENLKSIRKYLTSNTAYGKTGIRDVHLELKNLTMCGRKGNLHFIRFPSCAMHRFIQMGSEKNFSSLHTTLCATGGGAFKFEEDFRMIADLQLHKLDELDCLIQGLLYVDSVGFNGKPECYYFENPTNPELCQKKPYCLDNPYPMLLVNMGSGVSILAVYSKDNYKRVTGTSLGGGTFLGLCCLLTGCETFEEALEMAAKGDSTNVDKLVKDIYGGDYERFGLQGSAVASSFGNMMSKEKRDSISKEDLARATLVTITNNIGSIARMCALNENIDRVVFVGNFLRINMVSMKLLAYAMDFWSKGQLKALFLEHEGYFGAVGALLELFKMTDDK

S. aureus PanK (SaPanK) = S. aureus PanK (SaPanK) (Staphylococcus aureus, UniProt Q2FWC7); experiment: SaPanK radiochemical assay; type: biochemical; details: radioactive assay, 10 ng SaPanK
PanK3(R207A) = target: T5, PanK3(R207A) (Homo sapiens, UniProt Q9H999, R207A); experiment: TNP-ATP binding to PanK3
T5 sequence (Q9H999 1-370 R207A): T1 sequence (Q9H999 1-370 S195V) with V195S, R207A

PanK3(A269F) = target: T6, PanK3(A269F) (Homo sapiens, UniProt Q9H999, A269F); experiment: TNP-ATP binding to PanK3
T6 sequence (Q9H999 1-370 A269F): T1 sequence (Q9H999 1-370 S195V) with V195S, A269F

PanK3(A267F) = target: T7, PanK3(A267F) (Homo sapiens, UniProt Q9H999, A267F); experiment: TNP-ATP binding to PanK3
T7 sequence (Q9H999 1-370 A267F): T1 sequence (Q9H999 1-370 S195V) with V195S, A267F

PanK3 [3] = target: T2, PanK3; experiment: TNP-ATP fluorescent ATP analog binding to PanK3
[4] = HTS platform, 10-point concentration series in triplicate, rounded to nearest 0.1 µM

T2 sequence (Q9H999 whole entry): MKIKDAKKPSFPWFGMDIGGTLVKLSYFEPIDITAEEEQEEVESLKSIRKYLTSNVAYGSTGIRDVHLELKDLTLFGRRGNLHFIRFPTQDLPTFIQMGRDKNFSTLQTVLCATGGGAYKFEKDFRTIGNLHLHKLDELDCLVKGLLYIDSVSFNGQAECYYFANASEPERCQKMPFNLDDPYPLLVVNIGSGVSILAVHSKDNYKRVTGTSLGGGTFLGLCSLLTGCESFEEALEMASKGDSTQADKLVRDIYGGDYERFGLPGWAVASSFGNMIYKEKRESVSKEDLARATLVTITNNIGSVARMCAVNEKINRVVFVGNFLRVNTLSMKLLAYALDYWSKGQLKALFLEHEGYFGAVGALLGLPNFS

Compound: Nc1ncnc2c1ncn2[C@@H]1O[C@H](COP(=O)(O)OP(=O)(O)OP(=O)(O)O)[C@@H](O)[C@H]1O [ATP]
Km (PanK3(S195V)): 191 ± 27 µM | Km (PanK3 [1]): 311 ± 53 µM

IC50 (PanK3 [1]): 8.5 µM | IC50 (PanK3 [2]): 5.2 µM
Compound: Cc1cnc(C(=O)NCCc2ccc(S(=O)(=O)NC(=O)NC3CCCCC3)cc2)cn1 [Glipizide]

Compound: COc1ccc(Cl)cc1C(=O)NCCc1ccc(S(=O)(=O)NC(=O)NC2CCCCC2)cc1 [Glyburide]
Effect on PanK2 activity (PanK2): less sensitive to glyburide than PanK3 | Inhibition of PanK3(S195V) (PanK3(S195V)): refractory to inhibition | Effect on CoA biosynthesis (pantothenate incorporation into CoA) (HepG2/C3A cells): inhibited cellular CoA biosynthesis to a lesser extent than MCC-555 | IC50 (PanK3 [1]): 8.5 µM | Kinetic mechanism of PanK3 inhibition with respect to ATP (PanK3 [1]): uncompetitive | Effect on PanK1β activity (PanK1β): activated rather than inhibited | Inhibition of SaPanK (S. aureus PanK (SaPanK)): refractory; also recorded: not inhibited | IC50 (PanK3 [2]): 6.8 µM

Compound: O=C1NC(=O)C(Cc2ccc3cc(OCc4ccccc4F)ccc3c2)S1 (stereo not drawn) [MCC-555]
Effect on PanK2 activity (PanK2): inhibited | Inhibition of PanK3(S195V) (PanK3(S195V)): refractory to inhibition | Effect on CoA biosynthesis (pantothenate incorporation into CoA) (HepG2/C3A cells): inhibited pantothenate incorporation into CoA | Kinetic mechanism of PanK3 inhibition with respect to ATP (PanK3 [1]): uncompetitive | Effect on PanK1β activity (PanK1β): inhibited | Inhibition of SaPanK (S. aureus PanK (SaPanK)): refractory; also recorded: not inhibited

% Activation RA (PanK3 [1]): 140%
Compound: CCCCCCCC/C=C\CCCCCCCC(=O)O[C@H](CC(=O)[O-])C[N+](C)(C)C [Oleoyl-carnitine]
Effect on CoA biosynthesis (pantothenate incorporation into CoA) (HepG2/C3A cells): activators of CoA biosynthesis | Reversal of / competition with acetyl-CoA inhibition of PanK3 (PanK3 [1]): Competition between acetyl-CoA and oleoyl-carnitine was also observed

EC50 (PanK3 [1]): 500 nM | % Activation RA (PanK3 [1]): 120% | EC50 (PanK3 [2]): 7.9 µM
Compound: CCCCCCCC/C=C\CCCCCCCC(=O)NCCO [Oleoylethanolamide]

Compound: CN(CCOc1ccc(CC2SC(=O)NC2=O)cc1)c1ccccn1 (stereo not drawn) [Rosiglitazone]
Effect on CoA biosynthesis (pantothenate incorporation into CoA) (HepG2/C3A cells): inhibited pantothenate incorporation into CoA

Compound: Nc1ncnc2c1ncn2[C@@H]1O[C@H](COP(=O)(O)OP(=O)(O)OP(=O)(O)O)[C@H]2OC3(O[C@H]21)C([N+](=O)[O-])=CC(=[N+]([O-])[O-])C=C3[N+](=O)[O-] (stereo partly drawn) [TNP-ATP]
Kd (PanK3(R207A)): 3 ± 0.3 µM | Kd (PanK3(A269F)): 5.4 ± 0.8 µM | Kd (PanK3(A267F)): 3.1 ± 0.8 µM | Kd (PanK3 [3]): 3.6 ± 0.9 µM

Effect on PanK2 activity (PanK2): not affected | EC50 (PanK3 [1]): 4000 nM | % Activation RA (PanK3 [1]): 140% | Effect on PanK1β activity (PanK1β): inhibited | EC50 (PanK3 [2]): 3.4 µM
Compound: CC/C(=C(\c1ccccc1)c1ccc(OCCN(C)C)cc1)c1ccccc1 [Tamoxifen]
Effect on CoA biosynthesis (pantothenate incorporation into CoA) (HepG2/C3A cells): most potent activator of CoA biosynthesis in cells | Reversal of / competition with acetyl-CoA inhibition of PanK3 (PanK3 [1]): reversed the inhibition of PanK3 by acetyl-CoA

Compound: CC(=O)SCCNC(=O)CCNC(=O)[C@H](O)C(C)(C)COP(=O)(O)OP(=O)(O)OC[C@H]1O[C@@H](n2cnc3c(N)ncnc32)[C@H](O)[C@@H]1OP(=O)(O)O [acetyl-CoA]
Inhibition of PanK3(S195V) (PanK3(S195V)): refractory to inhibition

Compound: NS(=O)(=O)c1cc(C(=O)O)c(NCc2ccco2)cc1Cl [furosemide]
Activator hit in primary HTS (PanK3 [2]; screened at 12 µM, cut-off >25% activation): did not make the cutoff for an activator of PanK3

Km (PanK3(S195V)): 59 ± 3 µM | Km (PanK3 [1]): 23 ± 2 µM
Compound: CC(C)(CO)[C@@H](O)C(=O)NCCC(=O)NCCS [pantetheine]

Compound: Psi-Rhodomyrtoxin
IC50 (PanK3 [2]; [4]): 1.6 µM

IC50 (PanK3 [2]; [4]): 9 µM
Compound: Tyrphostin AG 808
